Like-named read-outs stand apart in the source and are kept apart here.
Target: recombinant HCV RNA-dependent RNA polymerase (NS5B protein) (Hepatitis C virus genotype 1b, UniProt P26663)
Assay: biochemical
Set-up: species or system HCV-Bk strain
[1] = read-out: Activity (polymerase activity, IC50)

Chain of recombinant HCV RNA-dependent RNA polymerase (NS5B protein) (P26663 2420-3010 limits assumed): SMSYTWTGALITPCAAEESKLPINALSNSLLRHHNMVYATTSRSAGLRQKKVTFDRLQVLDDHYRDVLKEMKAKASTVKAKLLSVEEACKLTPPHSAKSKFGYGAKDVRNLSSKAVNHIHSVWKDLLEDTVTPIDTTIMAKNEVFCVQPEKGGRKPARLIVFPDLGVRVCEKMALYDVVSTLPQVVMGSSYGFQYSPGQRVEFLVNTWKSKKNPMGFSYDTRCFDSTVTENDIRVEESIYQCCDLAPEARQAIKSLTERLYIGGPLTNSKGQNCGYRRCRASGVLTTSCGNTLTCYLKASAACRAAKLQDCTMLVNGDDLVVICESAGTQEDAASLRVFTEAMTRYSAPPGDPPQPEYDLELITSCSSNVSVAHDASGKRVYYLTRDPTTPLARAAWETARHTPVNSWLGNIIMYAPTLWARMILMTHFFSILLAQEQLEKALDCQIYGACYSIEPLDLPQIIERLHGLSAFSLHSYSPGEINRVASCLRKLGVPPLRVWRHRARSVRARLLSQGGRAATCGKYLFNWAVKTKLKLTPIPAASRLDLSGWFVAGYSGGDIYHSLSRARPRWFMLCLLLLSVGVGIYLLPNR

Compound	IC50	IC50 [1]
CCC(C)C(CN=[N+]=[N-])N(C(=O)c1ccc(Cl)cc1Cl)c1cc(-c2ccccc2)sc1C(=O)O (stereo not shown) [Compound 18, 3-[(1-azidomethyl-2-methyl-butyl)-(2,4-dichloro-benzoyl)-amino]-5-phenyl-thiophene-2-carboxylic acid]	< 5 µM	
CC1CCC(C(=O)N(c2cc(-c3ccccc3)sc2C(=O)O)C2CCN(C#N)CC2)CC1 (stereo not shown) [Compound 77, 3-[(1-cyano-piperidin-4-yl)-(4-methyl-cyclohexanecarbonyl)-amino]-5-phenyl-thiophene-2-carboxylic acid]	< 5 µM	
CC1CCC(C(=O)N(CC2CCCN(C)C2)c2cc(-c3ccccc3)sc2C(=O)O)CC1 (stereo not shown) [Compound 35, 3-{[(2-carboxy-5-phenyl-thiophen-3-yl)-(4-methyl-cyclohexanecarbonyl)-amino]-methyl}-1-methyl-piperidinium chloride]	< 5 µM	
CN(C)N(C(=O)c1ccc(Cl)cc1Cl)c1cc(-c2ccccc2)sc1C(=O)O [Compound 72, 3-[n-(2,4-dichloro-benzoyl)-N′,N′-dimethyl-hydrazino]-5-phenyl-thiophene-2-carboxylic acid]	< 5 µM	
CC1CCC(C(=O)N(c2cc(-c3ccccc3)sc2C(=O)O)N(C)C)CC1 (stereo not shown) [Compound 64, 3-[N′,N′-dimethyl-n-(4-methyl-cyclohexanecarbonyl)-hydrazino]-5-phenyl-thiophene-2-carboxylic acid]	< 5 µM	
CC1CCC(C(=O)N(c2cc(-c3cccc(F)c3)sc2C(=O)O)C2CCC(O)CC2)CC1 (stereo not shown) [Compound 51, 5-(3-fluoro-phenyl)-3-[(4-hydroxy-cyclohexyl)-(4-methyl-cyclohexanecarbonyl)-amino]-thiophene-2-carboxylic acid]	< 5 µM	
CC1CCC(C(=O)N(c2cc(-c3ccccc3)sc2C(=O)O)[C@H]2CC[C@@H](C(=O)O)CC2)CC1 (stereo partly shown) [Compound 78, 3-[(4-carboxy-cyclohexyl)-(4-methyl-cyclohexanecarbonyl)-amino]-5-phenyl-thiophene-2-carboxylic acid]	< 5 µM	
CC1CCC(C(=O)N(c2cc(-c3ccccc3)sc2C(=O)O)[C@H]2CC[C@H](C(=O)O)CC2)CC1 (stereo partly shown) [Compound 76, 3-[(4-carboxy-cyclohexyl)-(4-methyl-cyclohexanecarbonyl)-amino]-5-phenyl-thiophene-2-carboxylic acid]	< 5 µM	
CC1=CCC(C(=O)N(c2cc(-c3ccccc3)sc2C(=O)O)C(C)C)OC1 (stereo not shown) [Compound 30, 3-[isopropyl-(5-methyl-3,6-dihydro-2H-pyran-2-carbonyl)-amino]-5-phenyl-thiophene-2-carboxylic acid]	< 5 µM	
CC(=O)NC1CC(C)CCC1C(=O)N(c1cc(-c2ccccc2)sc1C(=O)O)C(C)C (stereo not shown) [Compound 12, 3-[(2-acetylamino-4-methyl-cyclohexanecarbonyl)-isopropyl-amino]-5-phenyl-thiophene-2-carboxylic acid]	5 to 20 µM	
C[C@H]1CC[C@H](C(=O)N(c2cc(-c3ccccc3)sc2C(=O)O)C2CC[S+]([O-])CC2)CC1 (relative stereo) [Compound 68, 3-[(trans-4-Methyl-cyclohexanecarbonyl)-(1-oxo-tetrahydro-thiopyran-4-yl)-amino]-5-phenyl-thiophene-2-carboxylic acid]	< 5 µM	
C[C@H]1CC[C@H](C(=O)N(c2cc(-c3ccc(F)c(F)c3)sc2C(=O)O)[C@H]2CC[C@H](O)CC2)CC1 [Compound 79, 5-(3,4-difluoro-phenyl)-3-[(4-hydroxy-cyclohexyl)-(4-methyl-cyclohexanecarbonyl)-amino]-thiophene-2-carboxylic acid]	< 5 µM	
C[C@H]1CC[C@H](C(=O)N(c2cc(-c3ccc(F)cc3)sc2C(=O)O)[C@H]2CC[C@@H](O)CC2)CC1 [Compound 73, 5-(4-fluoro-phenyl)-3-[(4-hydroxy-cyclohexyl)-(4-methyl-cyclohexanecarbonyl)-amino]-thiophene-2-carboxylic acid]	< 5 µM	
CNC(=O)N1CCC(N(C(=O)C2CCC(C)CC2)c2cc(-c3ccccc3)sc2C(=O)O)CC1 (stereo not shown) [Compound 71, 3-[(1-methylcarbamoyl-piperidin-4-yl)-(4-methyl-cyclohexanecarbonyl)-amino]-5-phenyl-thiophene-2-carboxylic acid]	< 5 µM	
CC1CCC(C(=O)N(Cc2ccccn2)c2cc(-c3ccccc3)sc2C(=O)O)CC1 (stereo not shown) [Compound 14, 3-[(4-methyl-cyclohexanecarbonyl)-pyridin-2-ylmethyl-amino]-5-phenyl-thiophene-2-carboxylic acid]	< 5 µM	
CC1CCC(C(=O)N(c2cc(-c3ccccc3)sc2C(=O)O)C2CCC(=NO)CC2)CC1 (stereo not shown) [Compound 16, 3-[(4-hydroxyimino-cyclohexyl)-(4-methyl-cyclohexanecarbonyl)-amino]-5-phenyl-thiophene-2-carboxylic acid]	< 5 µM	
CC(=O)c1ccc(-c2cc(N(C(=O)[C@H]3CC[C@H](C)CC3)[C@H]3CC[C@H](O)CC3)c(C(=O)O)s2)cc1 [Compound 85, 5-(4-acetyl-phenyl)-3-[(4-hydroxy-cyclohexyl)-(4-methyl-cyclohexanecarbonyl)-amino]-thiophene-2-carboxylic acid]	< 5 µM	

Compound	IC50	IC50 [1]
CC1CCC(C(=O)N(CC2CCCN(C)C2)c2cc(-c3ccc(F)cc3)sc2C(=O)O)CC1 (stereo not shown) [Compound 69, 5-(4-fluorophenyl)-((4-methyl-cyclohexanecarbonyl)-1-(methyl-piperidin-3-ylmethyl)-amino)-thiophene-2-carboxylic acid]	< 5 µM	
CNC(=O)N1CCC(N(C(=O)C2CCC(C)CC2)c2cc(-c3ccccc3)sc2C(=O)O)CC1 (stereo not shown) [Compound 74, 3-[(1-methylcarbamoyl-piperidin-4-yl)-(4-methyl-cyclohexanecarbonyl)-amino]-5-phenyl-thiophene-2-carboxylic acid]		< 5 µM
CC1=CCC(C(=O)N(c2cc(-c3ccc(F)cc3)sc2C(=O)O)C(C)C)CC1 (stereo not shown) [Compound 53, 5-(4-fluoro-phenyl)-3-[isopropyl-(4-methyl-cyclohex-3-enecarbonyl)-amino]-thiophene-2-carboxylic acid]	< 5 µM	
C[C@H]1CC[C@H](C(=O)N(c2cc(-c3ccccc3)sc2C(=O)O)[C@H]2CC[C@](C)(O)CC2)CC1 [Compound 88, 3-[(4-hydroxy-4-methyl-cyclohexyl)-(4-methyl-cyclohexanecarbonyl)-amino]-5-phenyl-thiophene-2-carboxylic acid]	< 5 µM	
CC1COC(C(=O)N(c2cc(-c3ccccc3)sc2C(=O)O)C(C)C)OC1 (stereo not shown) [Compound 22, 3-[isopropyl-(5-methyl-[1,3]dioxane-2-carbonyl)-amino]-5-phenyl-thiophene-2-carboxylic acid]	5 to 20 µM	
CC(=O)N1CCC(N(C(=O)C2CCC(C)CC2)c2cc(-c3ccccc3)sc2C(=O)O)CC1 (stereo not shown) [Compound 48, 3-[(1-acetyl-piperidin-4-yl)-(4-methyl-cyclohexanecarbonyl)-amino]-5-phenyl-thiophene-2-carboxylic acid]	< 5 µM	
CC1CCC(F)(C(=O)N(c2cc(-c3ccccc3)sc2C(=O)O)C(C)C)CC1 (stereo not drawn) [Compound 9, Trans-3-[(1-Fluoro-4-methyl-cyclohexanecarbonyl)-isopropyl-amino]-5-phenyl-thiophene-2-carboxylic acid]	< 5 µM	
CCC(C)C(CN)N(C(=O)c1ccc(Cl)cc1Cl)c1cc(-c2ccccc2)sc1C(=O)O (stereo not shown) [Compound 20, 3-[(1-aminomethyl-2-methyl-butyl)-(2,4-dichloro-benzoyl)-amino]-5-phenyl-thiophene-2-carboxylic acid]	5 to 20 µM	
CC1CCC(C(=O)N(CC2CCN(C)CC2)c2cc(-c3ccccc3)sc2C(=O)O)CC1 (stereo not shown) [Compound 38, 4-{[(2-carboxy-5-phenyl-thiophen-3-yl)-(4-methyl-cyclohexanecarbonyl)-amino]-methyl}-1-methyl-piperidinium chloride]	< 5 µM	
O=C(O)c1sc(-c2ccccc2)cc1N(CC1OCCO1)C(=O)c1ccc(Cl)cc1Cl [Compound 7, 3-[(2,4-dichloro-benzoyl)-[1,3]dioxolan-2-ylmethyl-amino]-5-phenyl-thiophene-2-carboxylic acid]	< 5 µM	
CC1CCC(C(=O)N(c2cc(-c3ccccc3)sc2C(=O)O)C2CCNC(=O)CC2)CC1 (stereo not shown) [Compound 82, 3-[(4-methyl-cyclohexanecarbonyl)-(7-oxo-azepan-4-yl)-amino]-5-phenyl-thiophene-2-carboxylic acid]		< 5 µM
CC1CCC(C(=O)N(Cc2cccnc2)c2cc(-c3ccccc3)sc2C(=O)O)CC1 (stereo not shown) [Compound 3, 3-[(4-methyl-cyclohexanecarbonyl)-pyridin-3-ylmethyl-amino]-5-phenyl-thiophene-2-carboxylic acid]	< 5 µM	
CC1CCC(C(=O)N(c2cc(-c3cccc(F)c3)sc2C(=O)O)C(C)C)C(O)C1 (stereo not shown) [Compound 44, 5-(3-fluoro-phenyl)-3-[(2-hydroxy-4-methyl-cyclohexanecarbonyl)-isopropyl-amino]-thiophene-2-carboxylic acid]	< 5 µM	
CC1CCC(C(=O)N(Cc2ccncc2)c2cc(-c3ccccc3)sc2C(=O)O)CC1 (stereo not shown) [Compound 4, 3-[(4-methyl-cyclohexanecarbonyl)-pyridin-4-ylmethyl-amino]-5-phenyl-thiophene-2-carboxylic acid]	< 5 µM	
C[C@H]1CC[C@H](C(=O)N(c2cc(-c3ccccc3)sc2C(=O)O)[C@H]2CCC[C@H](O)C2)CC1 (stereo in doubt) [Compound 89, 3-[(3-hydroxy-cyclohexyl)-(4-methyl-cyclohexanecarbonyl)-amino]-5-phenyl-thiophene-2-carboxylic acid]	< 5 µM	
C[C@H]1CC[C@H](C(=O)N(c2cc(-c3ccccc3)sc2C(=O)O)C2CCSCC2)CC1 [Compound 34, 3-[(trans-4-Methyl-cyclohexanecarbonyl)-(tetrahydro-thiopyran-4-yl)-amino]-5-phenyl-thiophene-2-carboxylic acid]	< 5 µM	
C[C@H]1CC[C@H](C(=O)N(c2cc(-c3ccc(F)cc3)sc2C(=O)O)[C@H]2CC[C@H](O)CC2)CC1 [Compound 50, 5-(4-fluoro-phenyl)-3-[(4-hydroxy-cyclohexyl)-(4-methyl-cyclohexanecarbonyl)-amino]-thiophene-2-carboxylic acid]	< 5 µM	

Reference: patent US8829030B2 (priority 2002, dated 2014)
